Test results from ChEMBL document CHEMBL1150236, “Dragonamides C and D, linear lipopeptides from the marine cyanobacterium brown Lyngbya polychroa” (2008).
Square brackets hold non-standard residues; d marks the D form. Peptide text beside a SMILES is read from it. * marks the point of attachment. NMeV = CN[C@H](C(=O)O)C(C)C; X1 = C#CCCC/C(=C\C(=O)*)OC; X2 = C#CCCCC(=O)CC(=O)*

Legend:
Format in all cases: functional
U2OS = experiment: Cytotoxicity against human U2OS cells after 48 hrs by MTT assay
IMR-32 = experiment: Cytotoxicity against human IMR32 cells after 48 hrs by MTT assay; conditions: IMR-32, 48 h
HT-29 = experiment: Cytotoxicity against human HT29 cells after 48 hrs by MTT assay; conditions: HT-29, 48 h

C#CCCC/C(=C\C(=O)N(C)[C@H](C(=O)N(C)[C@H](C(=O)N(C)[C@H](C(=O)N(C)[C@H](C(N)=O)C(C)C)C(C)C)C(C)C)C(C)C)OC [DRAGONAMIDE C] (X1-[NMeV][NMeV][NMeV][NMeV]-NH2)
GI50 (U2OS): 56 µM
GI50 (IMR-32): 49 µM
GI50 (HT-29): 22 µM

C#CCCCC(=O)CC(=O)N(C)[C@H](C(=O)N(C)[C@H](C(=O)N(C)[C@H](C(=O)N(C)[C@H](C(N)=O)C(C)C)C(C)C)C(C)C)C(C)C [DRAGONAMIDE D] (X2-[NMeV][NMeV][NMeV][NMeV]-NH2)
GI50 (U2OS): 59 µM
GI50 (IMR-32): 51 µM
GI50 (HT-29): 32 µM
